The source made the active and inactive calls. The calls are words filed in the database; no cut-off is given here.
Experiments:
[1] = Cytotoxicity against human MRC5 cells assessed as inhibition of cell growth incubated for 72 hrs by SRB assay; format: toxicity, cell-based
[2] = Cytotoxicity against HPDE6c7 cells assessed as inhibition of cell growth incubated for 72 hrs by SRB assay; format: toxicity, cell-based; conditions: human
PANC-1 [3] = test: Cytotoxicity against human PANC-1 cells assessed as inhibition of cell growth incubated for 72 hrs by SRB assay; format: functional, cell-based; conditions: PANC-1, 72 h
[4] = target: T1, Protein kinase C beta type (Homo sapiens, UniProt P05771); test: Inhibition of recombinant full length N-terminal GST-tagged human PKCbeta1 expressed in baculovirus infected Sf9 insect cells using ERMRPRKRQGSVRRRV as substrate incubated for 60 mins in presence of ATP by ADP-glo reagent based luminometric analysis
[5] = system: Gemcitabine-resistant PANC-1; test: Cytotoxicity against human Gemcitabine-resistant PANC-1 cells assessed as inhibition of cell growth incubated for 72 hrs by SRB assay; format: functional, cell-based; conditions: Gemcitabine-resistant PANC-1, 72 h
[6] = target: T1, Protein kinase C beta type; test: Binding affinity to PKCbeta1 in human Gemcitabine-resistant PANC-1 cells at 10 uM incubated for 1 hrs by streptavidin-biotin pull down assay; format: cell-based
Target sequence in this assay (P05771 2-671 limits assumed): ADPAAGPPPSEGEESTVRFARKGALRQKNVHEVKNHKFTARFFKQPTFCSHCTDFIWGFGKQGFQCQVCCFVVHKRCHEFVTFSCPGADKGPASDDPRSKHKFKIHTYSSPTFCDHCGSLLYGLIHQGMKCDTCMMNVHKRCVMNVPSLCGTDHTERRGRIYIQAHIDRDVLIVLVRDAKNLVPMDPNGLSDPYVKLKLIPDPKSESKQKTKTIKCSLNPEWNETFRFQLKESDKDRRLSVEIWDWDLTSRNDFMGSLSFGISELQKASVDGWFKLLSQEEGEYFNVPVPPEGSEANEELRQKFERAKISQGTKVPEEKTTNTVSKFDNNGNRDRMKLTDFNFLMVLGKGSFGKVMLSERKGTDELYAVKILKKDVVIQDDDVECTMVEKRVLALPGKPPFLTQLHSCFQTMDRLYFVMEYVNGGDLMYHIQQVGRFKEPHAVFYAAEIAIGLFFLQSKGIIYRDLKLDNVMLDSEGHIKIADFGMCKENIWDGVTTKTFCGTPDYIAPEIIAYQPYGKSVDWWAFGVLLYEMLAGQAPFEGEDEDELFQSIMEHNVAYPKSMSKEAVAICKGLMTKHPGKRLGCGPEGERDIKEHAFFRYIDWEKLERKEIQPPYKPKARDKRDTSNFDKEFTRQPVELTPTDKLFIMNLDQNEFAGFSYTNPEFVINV

PANC-1 [7] = test: Antiproliferative activity against human PANC-1 cells transfected with PKCbeta1 siRNA assessed as reduction in cell viability at 1.25 to 40 uM incubated for 72 hrs by MTT assay; format: functional, cell-based; conditions: dose 1.25-40 µM
[8] = system: Gemcitabine-resistant PANC-1; test: Antitumor activity against human Gemcitabine-resistant PANC-1 cells xenografted in male BALB/c nude mouse assessed as reduction in tumor growth at 5 mg/kg, ip administered three times in a week for 20 days; format: functional, organism-based; conditions: time 20.0 day
[9] = Selectivity ratio of IC50 for cytotoxicity against human Gemcitabine-resistant PANC-1 cells assessed as inhibition of cell growth to IC50 for cytotoxicity against human PANC-1 cells assessed as inhibition of cell growth; format: functional
PANC-1 [10] = test: Antiproliferative activity against human PANC-1 cells transfected with Myc-DDK tagged pCMV6-PKCbeta1 assessed as reduction in cell viability at 1.25 to 40 uM incubated for 72 hrs by MTT assay; format: functional, cell-based; conditions: dose 1.25-40 µM
[11] = system: Gemcitabine-resistant PANC-1; test: Antitumor activity against human Gemcitabine-resistant PANC-1 cells xenografted in male BALB/c nude mouse assessed as reduction in tumor growth at 10 mg/kg, ip administered three times in a week for 20 days relative to control; format: functional; set-up: scale not given: the % may be the effect or the level left; conditions: time 20 day

Compound | IC50 at 72 h [1] | IC50 (PANC-1 [3]) | further results
CN1c2ccccc2C(=O)N2CCc3c([nH]c4ccc(OC(=O)c5ccccc5)cc34)[C@H]21 | > 50 µM | 0.75 µM | IC50 at 72 h [2]: 0.14 µM; inhibition [4]: inactive; IC50 [5]: 0.13 µM
O=C1c2ccccc2N(C(=O)C2CCCCC2)C2c3[nH]c4ccccc4c3CCN12 (single isomer, unassigned) | > 50 µM | > 50 µM | 
CN1c2ccccc2C(=O)N2CCc3c(n(C(=O)c4ccccc4)c4ccccc34)[C@H]21 | > 50 µM | > 50 µM | 
Cc1ccc2c(c1)C(=O)N1CCc3c([nH]c4ccccc34)[C@H]1N2C | 7.36 µM | 2.02 µM | 
CN1c2ccccc2C(=O)N2CCc3c([nH]c4c([N+](=O)[O-])cc([N+](=O)[O-])cc34)[C@H]21 | > 50 µM | 0.93 µM | IC50 at 72 h [2]: 0.08 µM; inhibition [4]: inactive; IC50 [5]: 1.31 µM
O=C1c2ccccc2N[C@@H]2c3[nH]c4ccccc4c3CCN12 | > 50 µM | > 50 µM | 
CN1c2ccccc2C(=O)N2CCc3c([nH]c4ccc(O)cc34)[C@H]21 | > 50 µM | ≤ 0.05 µM | IC50 at 72 h [2]: 0.17 µM; inhibition [4]: inactive; IC50 [5]: 0.25 µM
CN1c2ccccc2C(=O)N2CCc3c(n(Cc4ccccc4)c4ccccc34)[C@H]21 | 33.7 µM | 6.88 µM | 
CC(=O)Oc1ccc2c(c1)c1c(n2Cc2cn(CCNC(=O)CCCC[C@@H]3SC[C@@H]4NC(=O)N[C@@H]43)nn2)C2N(CC1)C(=O)c1ccccc1N2C (some centres not stated) |  |  | Activity [6]: Active
Cc1ccc2[nH]c3c(c2c1)CCN1C(=O)c2ccccc2N(C)[C@H]31 | > 50 µM | 29.2 µM | 
CN1c2ccccc2C(=O)N2CCc3c([nH]c4ccccc34)[C@H]21 | > 50 µM | 6.59 µM | IC50 [4]: 0.151 µM
CN1c2cc(Cl)ccc2C(=O)N2CCc3c([nH]c4ccccc34)[C@H]21 | > 50 µM | > 50 µM | 
CN1c2ccccc2C(=O)N2CCc3c([nH]c4ccc([N+](=O)[O-])cc34)[C@H]21 | > 50 µM | 4.45 µM | 
CC(=O)Oc1ccc2[nH]c3c(c2c1)CCN1C(=O)c2cccc(C)c2N(C)[C@H]31 | < 0.4 µM | < 0.4 µM | 
COc1cc([C@@H]2c3cc4c(cc3[C@@H](O[C@@H]3O[C@@H]5CO[C@@H](C)O[C@H]5[C@H](O)[C@H]3O)[C@H]3COC(=O)[C@H]23)OCO4)cc(OC)c1O [ETOPOSIDE] | > 20 µM | 18.3 µM | 
CCCN1c2ccccc2C(=O)N2CCc3c([nH]c4ccccc34)[C@H]21 | < 0.4 µM | < 0.4 µM | 
Nc1ccn([C@@H]2O[C@H](CO)[C@@H](O)C2(F)F)c(=O)n1 [GEMCITABINE] |  | 1.25 µM | Activity (PANC-1 [7]): Active; Activity [8]: inactive; IC50 at 72 h [2]: 0.04 µM; Ratio IC50 [9]: 51.61; Activity (PANC-1 [10]): inactive; Activity [11]: 72.15%; IC50 [5]: 64.5 µM
CN1c2ccccc2C(=O)N2CCc3c([nH]c4ccc(OCc5ccccc5)cc34)[C@H]21 | > 50 µM | 10.7 µM | 
CN1c2ccc(F)cc2C(=O)N2CCc3c([nH]c4ccccc34)[C@H]21 | < 0.4 µM | < 0.4 µM | 
CC(=O)Oc1ccc2[nH]c3c(c2c1)CCN1C(=O)c2cc(F)ccc2N(C)[C@H]31 | < 0.4 µM | < 0.4 µM | 
C=CCOc1ccc2[nH]c3c(c2c1)CCN1C(=O)c2ccccc2N(C)[C@H]31 | > 50 µM | 6.7 µM | 
Cn1cc(C2=C(c3cn(C4CCN(Cc5ccccn5)CC4)c4ccccc34)C(=O)NC2=O)c2ccccc21 [ENZASTAURIN] |  | 6.59 µM | IC50 at 72 h [2]: 1.33 µM; IC50 [5]: 2.12 µM

Compound | IC50 at 72 h [1] | IC50 (PANC-1 [3]) | further results
CN1c2ccc(Br)cc2C(=O)N2CCc3c([nH]c4ccccc34)[C@H]21 | 3.06 µM | 2.25 µM | 
COc1cccc2c1C(=O)N1CCc3c([nH]c4ccccc34)[C@H]1N2C | 12.7 µM | 12.6 µM | 
CN1c2cccc(Cl)c2C(=O)N2CCc3c([nH]c4ccccc34)[C@H]21 | < 0.4 µM | 8.8 µM | 
O=C1c2ccccc2N(Cc2ccc(C(F)(F)F)cc2)[C@@H]2c3[nH]c4ccccc4c3CCN12 | 50 µM | 31.5 µM | 
CN1c2ccccc2C(=O)N2CCc3c(n(Cc4ccc(Cl)cc4)c4ccccc34)[C@H]21 | > 50 µM | 44 µM | 
COc1ccc(Cn2c3c(c4ccccc42)CCN2C(=O)c4ccccc4N(C)[C@H]32)cc1 | > 50 µM | 47.2 µM | 
O=C1c2ccccc2N(Cc2ccccc2)[C@@H]2c3[nH]c4ccccc4c3CCN12 | > 50 µM | > 50 µM | 
Cc1ccc(CN2c3ccccc3C(=O)N3CCc4c([nH]c5ccccc45)[C@H]32)cc1 | > 50 µM | 11.3 µM | 
CCCn1c2c(c3ccccc31)CCN1C(=O)c3ccccc3N(C)[C@H]21 | > 50 µM | 38.4 µM | 
COc1ccc2[nH]c3c(c2c1)CCN1C(=O)c2ccccc2N(C)[C@H]31 | 10.8 µM | 11.1 µM | 
Cc1cccc2c1N(C)[C@@H]1c3[nH]c4ccccc4c3CCN1C2=O | < 0.4 µM | < 0.4 µM | 
COc1ccc2c(c1)C(=O)N1CCc3c([nH]c4ccccc34)[C@H]1N2C | 3.33 µM | 1.05 µM | 
CN1c2ccccc2C(=O)N2CCc3c([nH]c4ccc(F)cc34)[C@H]21 | 4.71 µM | 9.32 µM | 
C#CCOc1ccc2[nH]c3c(c2c1)CCN1C(=O)c2ccccc2N(C)[C@H]31 | > 50 µM | 4 µM | 
CN1c2ccccc2C(=O)N2CCc3c(n(C)c4ccccc34)[C@H]21 | > 50 µM | > 50 µM | 
CN1c2ccc(Cl)cc2C(=O)N2CCc3c([nH]c4ccccc34)[C@H]21 | 1.03 µM | 1.32 µM | 
CCCCCCn1c2c(c3ccccc31)CCN1C(=O)c3ccccc3N(C)[C@H]21 | 37.6 µM | 13.7 µM | 
CCCOc1ccc2[nH]c3c(c2c1)CCN1C(=O)c2ccccc2N(C)[C@H]31 | > 50 µM | 19 µM | 
Cc1ccc(Cn2c3c(c4ccccc42)CCN2C(=O)c4ccccc4N(C)[C@H]32)cc1 | > 50 µM | > 50 µM | 
CN1c2ccccc2C(=O)N2CCc3c([nH]c4ccc(Cl)cc34)[C@H]21 | 9.42 µM | 31.6 µM | 
COc1ccc2c(c1)N(C)[C@@H]1c3[nH]c4ccccc4c3CCN1C2=O | 3.6 µM | 31.6 µM | 

— ChEMBL document CHEMBL5584333, “Evo312: An Evodiamine Analog and Novel PKCβI Inhibitor with Potent Antitumor Activity in Gemcitabine-Resistant Pancreatic Cancer” (J Med Chem, 2024)
